Read-outs that look alike come from different tables or passages of the source. Values belong to the compound of their own block, whether it stands above or below them.
Experiments:
HSP-90 = target: T1, HSP-90 (Homo sapiens, UniProt P08238); assay: HSP-90 fluorescence polarization assay; format: binding; details: read-out: HSP-90 FP, IC50
T1 construct: made in house
Protocol: The HSP-90ß FP assay was conducted as previously described.

[1] = tested on: p(Ser^293)E1α levels in PC-3 cells; assay: Phospho(Ser293) E1α MSD ELISA in PC-3 cells; format: cell-based; details: for Degree of suppression of p(Ser^293)E1α levels (plateau), reduction compared to DMSO control: MSD ELISA; for IC50: Homo sapiens, PD marker (ELISA)
Protocol: Phospho(Ser^293) E1α MSD ELISA assay: All reagents were purchased from Meso Scale Discovery (Maryland, USA) unless otherwise stated. Following compound treatment, cells were treated with lysis buffer (TBS pH 7.4, 1% Tween-20, 1 mM EGTA, 1 mM EDTA, 1 mM NaF, protease and phosphatase inhibitor cocktails (Roche)) on ice and the lysates added to standard bind 96 well MSD plates which were pre-loaded with custom phospho(Ser^293)E1α ‘capture’ antibody (2 μg/ml in TBST containing 3% (w/v) blocker A) (Genescript) and blocked with 3% (w/v) blocker A, followed by a 1 h incubation at RT. The wells were then washed 3X with TBST (0.05% tween 20) followed by the addition of 2 μg/ml E1α ‘detection’ antibody (2 μg/ml) (Abcam) and a further 1 h incubation at RT. The wells were again washed 3X with TBST followed by the addition of 1 μg/ml Goat anti-mouse Sulfotag antibody, and a further TBST wash prior to the addition of 2X read buffer T. The chemiluminescent signal was then measured on a MSD sector imager 2400.

[2] = tested on: HSP-70 induction in PC-3 cells (biomarker for HSP-90 inhibition); assay: HSP-70 in-cell ELISA assay; format: cell-based; details: for EC50: PD marker (ELISA), PC-3 cells, 24 h
Protocol: DELFIA assay reagents (assay buffer, enhancement solution and europium-labeled secondary antibody) were obtained from Perkin Elmer (MD, USA). PC-3 cells were seeded (1×10^4 per well) into 96 well black-walled cell culture plates. The following day, the cells were treated with a 10 point tripling dilution series of test compound for 24 h followed by fixation with TBS containing 4% formaldehyde for 15 min at RT. The cells were then permeabilized the addition of permeabilization buffer (TBS containing 1% triton-X-100) and a further 15 min incubation at RT. The cells were then washed 3X with TBS, followed by the addition of quenching solution (TBS containing 1% H2O2), a 20 min incubation at RT and a further 3X wash with TBS. The permeabilized cells were then incubated for 30 minutes with blocking buffer (TBS containing 5% (w/v) dried milk) followed by a 90 min incubation with HSP-70 primary antibody (ENZO; 1:1000 dilution in TBS containing 200 μg/ml BSA). The wells were then washed 3X with wash buffer (TBS containing 0.1% Tween-20), followed by the addition of europium-labeled anti-mouse secondary antibody (1:1000 in DELFIA assay buffer) and a 1 h incubation at RT. The wells were then washed 3X with wash buffer followed by the addition of enhancement solution.

[3] = tested on: p(Ser^293)E1α in PC-3 cells; assay: Immunoblot time course of biomarker suppression in PC-3 cells; format: cell-based; details: Fig. 2F
Protocol: Cell lysates were prepared by washing cells with PBS followed by the addition of lysis buffer (2% SDS, 50 mM TRIS-pH 6.8) directly to the well. Equal amounts of lysate were loaded onto pre-cast 4-12% SDS-PAGE gels (Life technologies) followed by transfer to PVDF membrane. The membranes were blocked for 1 h in TBST containing 5% non-fat dried milk, followed by a 2 h incubation with the relevant primary antibody: PDH phospho(Ser^293)E1α (Genescript, custom rabbit polyclonal antibody), 1:600; PDH E1α (Abcam), 1:1000; PDP-1 (Sigma), 1:2000; PDK-1 (ENZO), 1:1000; HSP-70 (Santa Cruz), 1:5000; β-tubulin (Cell signaling technology), 1:1000. The membranes were then incubated with HRP-linked goat anti-rabbit or anti-mouse secondary antibodies (Santa Cruz) followed by visualization of immunoreactive bands by the addition of a chemiluminescent substrate (Millipore).

PC-3 cells [4] = assay: Metabolite analysis (L-lactate, D-glucose, pyruvate, L-alanine) in PC-3 cells; format: cell-based; details: for Reduction in media L-lactate levels: 1 h; for Intracellular pyruvate levels: 24 h
Protocol: Pyruvate, L-lactate, D-glucose and L-alanine levels were determined using commercially available assay kits (Abcam) as per the manufacturer's instructions.

[5] = tested on: hTert immortalized human foreskin fibroblast (HFF) cell line; assay: Glycolytic activity (L-lactate, D-glucose) in HFF cells; format: cell-based; details: 6 h, 0.25 g/L D-glucose, 2% dialyzed FCS; VER-246608 effect only at top concentration (27 μM)
Protocol: Pyruvate, L-lactate, D-glucose and L-alanine levels were determined using commercially available assay kits (Abcam) as per the manufacturer's instructions. […]
transformed and additional cancer cell lines. A, The indicated cell lines were seeded into […]
relevant media containing either 2 g/L D-glucose or D-galactose for 96 h. Cell mass was determined using the sulforhodamine B assay. Results are expressed as the percentage change vs DMSO control values for cells incubated in D-glucose containing media. B, HFF cells were seeded into 96 well plates at a density of 1x10^4 cells per well in 96 well plates. […]
and Nov3r (in DMEM media containing 0.25 g/L D-glucose and 2% dialyzed FCS) for 6 h, followed by the removal of cell culture media for analysis of L-lactate and D-glucose. At the end of the experiment the remaining media was aspirated and the cells transferred to a - 80 °C freezer for subsequent analysis of p(Ser293)E1α levels by MSD ELISA. C. K562 cells […]
analysis of pyruvate dehydrogenase (PDH) activity in cell lysates using a commercially available ELISA-based assay kit (Abcam). Results are expressed as a percentage of the PDH reaction rate in DMSO treated cells. D, Jurkat cells ([…]) were pre-treated in RPMI- […]
suspension in glucose-free RPMI-1640 media supplemented with 2 g/L 1,6-13C-D-Glucose followed by kinetic acquisition of 13C-NMR spectra at 10 min intervals. […]

PC-3 cells [6] = assay: Sulforhodamine B cell mass assay, PC-3 cells; format: cell-based
Protocol: Compound cytotoxicity was determined using the Sulforhodamine B assay for cells cultured as a monolayer as described previously (45). For spheroid growth experiments, PC-3 cells were seeded (500 cells/well) into 96 well round bottom plates (Corning Costar 7007) in RPMI-1640 media containing 2.5% (w/v) Matrigel (BD Biosciences). […] Spheroid volumes were determined by obtaining diameter measurements from images taken on a Zeiss Axiovert 200M inverted microscope using the axiovision software.

T1 sequence (P08238 whole entry, species assumed): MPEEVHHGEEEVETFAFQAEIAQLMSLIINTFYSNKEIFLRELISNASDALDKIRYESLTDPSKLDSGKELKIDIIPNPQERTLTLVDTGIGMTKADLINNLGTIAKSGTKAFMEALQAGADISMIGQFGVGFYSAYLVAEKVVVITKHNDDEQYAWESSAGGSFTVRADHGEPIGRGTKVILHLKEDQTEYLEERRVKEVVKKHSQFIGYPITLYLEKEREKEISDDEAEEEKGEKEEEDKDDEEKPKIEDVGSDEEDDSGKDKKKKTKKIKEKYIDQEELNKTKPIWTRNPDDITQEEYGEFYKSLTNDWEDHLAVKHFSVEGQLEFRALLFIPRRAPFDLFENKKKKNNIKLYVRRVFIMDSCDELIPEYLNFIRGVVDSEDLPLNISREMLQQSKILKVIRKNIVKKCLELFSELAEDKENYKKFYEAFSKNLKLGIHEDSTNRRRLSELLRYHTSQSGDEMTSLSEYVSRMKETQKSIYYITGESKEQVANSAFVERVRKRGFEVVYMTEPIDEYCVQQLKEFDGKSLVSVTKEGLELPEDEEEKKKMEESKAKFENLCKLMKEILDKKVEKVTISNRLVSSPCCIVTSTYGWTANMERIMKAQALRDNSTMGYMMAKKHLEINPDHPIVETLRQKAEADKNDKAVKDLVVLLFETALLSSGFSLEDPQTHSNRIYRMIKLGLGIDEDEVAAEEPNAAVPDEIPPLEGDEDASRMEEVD

IC50 (HSP-90): > 200 µM
EC50 [2]: > 80 µM
SMILES: C[C@@H]1CN(C(=O)[C@](C)(O)C(F)(F)F)[C@@H](C)CN1C(=O)c1ccc(C#N)cc1 [Nov3r, reference compound]
Degree of suppression of p(Ser^293)E1α levels (plateau), reduction compared to DMSO control ([1]; PC-3 cells): approximately 60%
Period of time to achieve maximal biomarker suppression [3]: 16 min
Change in media L-lactate levels (PC-3 cells [4]; PC-3, all concentrations tested, 0.25 g/L D-glucose, 2% dialyzed FCS): no change
Effect on glycolytic activity in HFF cells [5]: did not alter glycolytic activity
Cytotoxicity/cytostasis-induction (PC-3 cells [6]; any of the culture conditions, up to a top concentration of 80 μM): no evidence of cytotoxicity/cytostasis-induction

SMILES: Cc1cnc(Cl)nc1-c1ccc(N(Cc2ccc(CNC(=O)C(F)F)cc2)C(=O)c2ccc(O)cc2O)cc1 [VER-246608]
IC50 (HSP-90): > 100 µM
IC50 ([1]; PC-3, read-out: p(Ser^293)E1α (10% FCS), IC50, 10% FCS): 1.45 µM
IC50 ([1]; PC-3 cells, 0% FCS, read-out: p(Ser^293)E1α (0% FCS), IC50): 0.266 µM
Reduction in p(Ser^293)E1α levels ([1]; PC-3, 10 and 20 μM, 24 h, D-glucose/L-glutamine-depleted media): > 70%
Degree of suppression of p(Ser^293)E1α levels (plateau), reduction compared to DMSO control ([1]; PC-3 cells): complete suppression
EC50 ([2]; Homo sapiens): > 80 µM
Induction of HSP-70 in PC-3 cells ([2]; biomarker for HSP-90 inhibition): lack of a detectable induction
Period of time to achieve maximal biomarker suppression [3]: 16 min
Reduction in media L-lactate levels (PC-3 cells [4]; PC-3, 9 μM, 0.25 g/L D-glucose, 2% dialyzed FCS): 21%
Intracellular pyruvate levels (PC-3 cells [4]; PC-3, 20 μM, D-glucose/L-glutamine and serum depleted conditions): marked reduction
Intracellular pyruvate levels (PC-3 cells [4]; PC-3, 20 μM, standard culture conditions): no change
Extracellular L-alanine levels (PC-3 cells [4]; PC-3, 20 μM, standard and low serum culture conditions): further substantial decrease
Reduction in media L-lactate levels (PC-3 cells [4]; PC-3, 27 μM, 0.25 g/L D-glucose, 2% dialyzed FCS): 42%
Extracellular L-lactate levels (PC-3 cells [4]; PC-3, 24 h, 10 and 20 μM, D-glucose/L-glutamine-depleted media): further reduction
L-lactate production vs DMSO (PC-3 cells [4]; PC-3, 24 h, normal or low serum media): not altered
Effect on D-glucose consumption (PC-3 cells [4]; PC-3, same concentrations that reduced L-lactate production (9 and 27 μM)): decreased D-glucose consumption
Effect on glycolytic activity in HFF cells [5]: decrease in extracellular L-lactate and D-glucose levels
Effect on growth in serum-free media or 0.1% serum (PC-3 cells [6]; PC-3, 20 μM, 120 h, 0% or 0.1% FCS): complete suppression of growth
Reduction in cell mass vs DMSO control (PC-3 cells [6]; PC-3, 20 μM, 120 h, D-glucose depletion with 15 mg/L L-glutamine): 50%
Reduction in growth (PC-3 cells [6]; PC-3, 20 μM, 120 h, serum depleted conditions (0.5% FCS)): 70%
